Test [1] deals with IL-6. In words: LPS-stimulated IL-6 production in sputum macrophages from COPD. As to conditions: Homo sapiens, Macrophage; read-out: IL-6 E max, sputum macrophage. It counts as cell-based. The method, then:
Patients with COPD were inhaled with a nebulised solution of 3% (w/v) hypertonic saline using an ultrasonic nebuliser (Devilbiss, Carthage, Mo.) with tidal breathing for 5 min. This procedure was repeated a maximum of three times until enough sputum was obtained. The sputum samples were homogenized and mixed vigorously using a vortex mixer in 0.02% v/v dithiothreitol (DTT) solution. The samples were re-suspended in PBS (40 mL) followed by centrifugation at 1500 rpm at 4° C. for 10 min to obtain sputum cell pellets. The pellets were washed twice with PBS (40 mL). […]
(§1) Where appropriate, 1 μL of a solution containing either the test compound or reference article at the stated concentrations or alternatively 1 μL of DMSO as the vehicle control was added to each well (200 μL in media) and the cells were incubated for 2 hr. […] After washing with 200 uL wash buffer per well, the beads were resuspended in sheath fluid (150 μL) and analyzed immediately. The level of each analyte in the supernatant was calculated using Xcel Fit software with a 4 or 5-parameter equation using each standard curve. The inhibitions of each cytokine production were calculated at each concentration by comparison with vehicle control. The IC50 values were determined from concentration-inhibition curves using XL-Fit (idbs, Guildford, UK)

The subject of the next test is A/J mice. Put plainly: Cigarette smoke model: macrophage and neutrophil accumulation in BALF. In kind it is in vivo, mouse. The settings on record: 1.75 μg/mouse (35 μL, bid, i.n.). Here is the method:
A/J mice (males, 5 weeks old) were exposed to cigarette smoke (4% cigarette smoke, diluted with air) for 30 min/day for 11 days using a Tobacco Smoke Inhalation Experiment System for small animals (Model SIS-CS; Sibata Scientific Technology, Tokyo, Japan). […] At 12 hr after the last dosing, each of the animals was anesthetized, the trachea cannulated and bronchoalveolar lavage fluid (BALF) was collected. The numbers of alveolar macrophages and neutrophils were determined by FACS analysis (EPICS® ALTRA II, Beckman Coulter, Inc., Fullerton, Calif., USA) using anti-mouse MOMA2 antibody (macrophage) or anti-mouse 7/4 antibody (neutrophil). BALF was centrifuged and the supernatant was collected. The level of keratinocyte chemoattractant (KC; CXCL1) in BALF was quantitated using a Quentikine® mouse KC ELISA kit (R&D systems, Inc., Minneapolis, Minn., USA).

The test system of test [2] is IL-6. In words: TNFα-stimulated IL-6 production in primary bronchial epithelial cells from COPD. It counts as cell-based. As to conditions: Homo sapiens, Epithelial cell; read-out: IL-6 E max, bronchial epithelial cell. Here is the method:
(§2) Primary airway epithelial cells obtained from patients with COPD were purchased from Asterand (Royston, UK), and maintained in bronchial epithelial cell growth media that was prepared by mixing together LHC8 (lnvitrogen) (500 mL), with LHC9 (Invitrogen) (500 mL) and 3 μL of retinoic acid solution (5 mg/mL in neat DMSO. The media was removed by aspiration and fresh BEGM (200 μL) was added to each well. Where appropriate, 1 μL of a solution of the test compound at the state concentrations or 1 μL of DMSO as the vehicle control was added and the cells were incubated for 2 hr. The cells were stimulated with TNFα (50 μL; final concentration 50 ng/mL) and then incubated for 4 hr at 37° C. and 5% CO2. The supernatant was then collected and kept at −20° C.
(§3) The levels of IL-6 and IL-8 were determined by ELISA using R&D Systems' Human IL-6 and IL-8 Duoset® Elisa Kits. The inhibition of IL-6 and IL-8 production was calculated at each concentration by comparison with vehicle control.

The subject of test [3] is IL-8. Put plainly: TNFα-stimulated IL-8 production in primary bronchial epithelial cells from COPD. It counts as cell-based. The settings on record: Homo sapiens, Epithelial cell; read-out: IL-8 E max, bronchial epithelial cell. Here is the method: as §2, §3
Test [4] relates to IL-8. In words: LPS-stimulated IL-8 production in sputum macrophages from COPD. In kind it is cell-based. As to conditions: Homo sapiens, Macrophage; read-out: IL-8 E max, sputum macrophage. The method, then:
(§4) Patients with COPD were inhaled with a nebulised solution of 3% (w/v) hypertonic saline using an ultrasonic nebuliser (Devilbiss, Carthage, Mo.) with tidal breathing for 5 min. This procedure was repeated a maximum of three times until enough sputum was obtained. The sputum samples were homogenized and mixed vigorously using a vortex mixer in 0.02% v/v dithiothreitol (DTT) solution. The samples were re-suspended in PBS (40 mL) followed by centrifugation at 1500 rpm at 4° C. for 10 min to obtain sputum cell pellets. The pellets were washed twice with PBS (40 mL). The sputum cells were then re-suspended in macrophage serum-free medium (macrophage-SFM, Life technologies, Paisley, UK; to achieve 2×10^6/well in a 24 well plate) containing 20 U/mL penicillin, 0.02 mg/mL streptomycin and 5 μg/mL amphotericin B and seeded on high bound 96-well plate, followed by incubation for 2 hr at 37° C. and at 5% CO2 to allow the macrophages to attach to the bottom of the plate. The cells on the plate were washed with fresh macrophage-SFM (200 μL/well) to remove neutrophils and other contaminated cells. The adherent cells (mainly sputum macrophages) on the plate were used for further analysis. Sputum induction and isolation were conducted in Quintiles Drug Research Unit at Guys Hospital and ethics approval and written informed consent was obtained by Quintiles.
as §1

For the next test, the system named is TNFα. Put plainly: LPS-stimulated TNFα production in sputum macrophages from COPD. In kind it is cell-based. The settings on record: Homo sapiens, Macrophage; read-out: TNFα E max, sputum macrophage. The method, then: as §4, §1
The next test concerns MIP1α. In words: LPS-stimulated MIP1α production in sputum macrophages from COPD. The settings on record: Homo sapiens, Macrophage; read-out: MIP1α E max, sputum macrophage. In kind it is cell-based. Here is the method:
as §4, §1

Results on 1 compound are retold here after patent US10238658B2, “1-pyrazolyl-3-(4-((2-anilinopyrimidin-4-yl) oxy) napththalen-1-yl) ureas as p38 MAP kinase inhibitors” (Respivert Limited, priority 2011, dated 2019).

For `CCC(=O)O[C@]1(C(=O)SCF)[C@H](C)C[C@H]2[C@@H]3C[C@H](F)C4=CC(=O)C=C[C@]4(C)[C@@]3(F)[C@@H](O)C[C@@]21C` [Fluticasone Propionate, fluticasone propionate, reference compound], the Emax at 0.1 µg/mL in the test on IL-6 [1] is 26%; in the test with IL-6 [2] it was 38%; in the test with IL-8 [3], 17%; in the test with IL-8 [4], 19%; in the test on TNFα, 18%; in the test on MIP1α it was 20%. Besides, in the test with A/J mice, the “macrophage accumulation into airways, cigarette smoke model” value is “did not inhibit”. Besides, in the test on A/J mice, the “neutrophil accumulation into airways, cigarette smoke model” value is on record as “did not inhibit”.
